The target of series [1] is T1, ToxT (Vibrio cholerae, UniProt P0C6D6).
T1 construct: gene tcpN; 6xHis fusion from pHIS-Tev plasmid, expressed in E. coli BL21(DE3), Ni-agarose purified
It counts as binding. The conditions noted are these: 1.0 µM ToxT pre-incubated with TB (40 mM) 20 min, 1 nM PtcpA DNA, pH 7.5.

In series [2] the target is T2, ToxT (His6/NBP-ToxT fusion) (Vibrio cholerae N16961?) (UniProt P0C6D6).
T2 sequence: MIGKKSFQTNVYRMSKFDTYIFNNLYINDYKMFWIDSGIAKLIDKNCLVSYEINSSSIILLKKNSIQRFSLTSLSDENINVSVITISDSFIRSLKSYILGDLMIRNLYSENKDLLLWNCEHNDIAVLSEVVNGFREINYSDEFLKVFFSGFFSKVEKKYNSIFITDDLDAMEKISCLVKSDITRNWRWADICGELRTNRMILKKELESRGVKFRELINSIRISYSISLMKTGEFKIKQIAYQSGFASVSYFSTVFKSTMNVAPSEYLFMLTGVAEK
Put plainly: competition. The settings on record: 10 mM Tris-HCl pH 7.5, 100 mM KCl, 1 mM EDTA, 1 mM DTT, 200 µg/mL BSA, 10% glycerol, […] (temperature not stated).

Series [3] addresses T1, ToxT. Put plainly: intrinsic tryptophan fluorescence quenching, logarithmic plot. It counts as binding.

With `CCCC(=O)OCC(COC(=O)CCC)OC(=O)CCC` [TB, tributyrate], the “inhibition of DNA binding” value at ToxT [1] is “tributyrate (TB), was used, and it showed no inhibition on ToxT-DNA binding”.
“ATTGCTGAGCTAAAGGGGCTGGAAATTCAATGTCATCAGGCTGTTGCCAAGTGACGCGATTCAGTGCGGCTAAATAGAGCGAAGTTAATTGATTCATACTATTATTCAATTTGACGCTTTACCCGATTACCCTAGCTACCTGCAATACCA (double strand) [nonspecific competitor DNA]”: the binding result in series [2] is reported as “no binding”.
Regarding `CCCC(=O)O` [SB, sodium butyrate], binding on ToxT [3] was put at a Kd of 2600 ± 30 µM.

Source of the values: publication PMC12108080, “Sodium butyrate inhibits the expression of virulence factors in Vibrio cholerae by targeting ToxT protein” (mSphere, 2025).
